As usually defined, the pIC50 is the negative decadic logarithm of the IC50, by convention in mol/L. A low value points to a large IC50.

We go through 79 compounds from the Kinase Knowledgebase extract (Sharma et al. 2016).

Structures are written as SMILES. pIC50: −log10 of the molar value. Values joined by “and” are separate entries in the source; they are usually repeats but may differ in a detail not shown here. Equal entries are not always repeated.

ROCK2 (human), sequence (O75116 whole entry, looked up): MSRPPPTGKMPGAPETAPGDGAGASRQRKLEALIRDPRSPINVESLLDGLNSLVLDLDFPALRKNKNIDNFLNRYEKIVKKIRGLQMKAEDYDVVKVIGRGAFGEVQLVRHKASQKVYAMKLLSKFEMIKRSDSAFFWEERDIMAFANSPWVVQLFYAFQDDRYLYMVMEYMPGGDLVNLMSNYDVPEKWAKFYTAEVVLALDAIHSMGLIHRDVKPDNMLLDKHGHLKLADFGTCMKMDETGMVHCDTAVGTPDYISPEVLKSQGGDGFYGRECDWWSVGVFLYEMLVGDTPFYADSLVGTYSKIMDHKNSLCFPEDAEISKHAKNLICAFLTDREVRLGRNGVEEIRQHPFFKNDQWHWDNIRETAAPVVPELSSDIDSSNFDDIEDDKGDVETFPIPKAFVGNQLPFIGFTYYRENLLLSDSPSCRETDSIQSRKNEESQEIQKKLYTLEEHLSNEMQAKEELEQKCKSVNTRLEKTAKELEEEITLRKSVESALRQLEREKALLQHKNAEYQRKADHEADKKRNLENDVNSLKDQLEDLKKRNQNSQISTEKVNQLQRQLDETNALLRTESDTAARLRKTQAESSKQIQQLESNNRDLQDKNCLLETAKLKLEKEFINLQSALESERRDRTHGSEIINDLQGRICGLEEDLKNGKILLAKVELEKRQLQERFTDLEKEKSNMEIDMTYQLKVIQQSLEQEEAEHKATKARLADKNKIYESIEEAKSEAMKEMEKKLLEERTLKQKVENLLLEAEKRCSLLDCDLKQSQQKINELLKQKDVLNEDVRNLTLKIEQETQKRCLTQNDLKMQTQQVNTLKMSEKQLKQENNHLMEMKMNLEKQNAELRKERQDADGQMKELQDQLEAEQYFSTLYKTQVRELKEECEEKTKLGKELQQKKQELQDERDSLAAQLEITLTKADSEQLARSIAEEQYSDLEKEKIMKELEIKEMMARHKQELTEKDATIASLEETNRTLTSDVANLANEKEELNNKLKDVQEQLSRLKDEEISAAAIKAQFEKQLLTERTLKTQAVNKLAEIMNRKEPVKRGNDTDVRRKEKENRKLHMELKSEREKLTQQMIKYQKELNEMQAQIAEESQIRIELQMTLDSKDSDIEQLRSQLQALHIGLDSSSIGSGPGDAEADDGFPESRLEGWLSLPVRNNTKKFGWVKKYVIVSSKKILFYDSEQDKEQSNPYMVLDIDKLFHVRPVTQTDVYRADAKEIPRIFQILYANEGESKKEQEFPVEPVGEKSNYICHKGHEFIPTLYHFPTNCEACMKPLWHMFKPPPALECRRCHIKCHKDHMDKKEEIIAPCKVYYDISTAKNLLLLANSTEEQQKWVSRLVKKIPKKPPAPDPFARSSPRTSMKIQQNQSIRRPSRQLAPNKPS

The assay addresses ROCK2 (human) (UniProt O75116). The assay is described as follows: Inhibition of ROCK2 Kinase Activity.
For `CCCC1(C(N)CC)CCC(Oc2cc3cc[nH]c(=O)c3cc2Cl)CC1` (centres undefined), the pIC50 was no less than 8.00.
Next, `CCC(N)[C@]1(CC)CC[C@H](Oc2cc3cc[nH]c(=O)c3cc2C)CC1` (some centres undefined): 6.00 to 7.00.
Next, `CCC(N)[C@]1(C2CCSCC2)CC[C@H](Oc2cc3cc[nH]c(=O)c3cc2Cl)CC1` (some centres undefined): no less than 8.00; `CCC(N)[C@]1(C(C)C)CC[C@H](Oc2cc3c(F)c[nH]c(=O)c3cc2Cl)CC1` (some centres undefined): 7.00 to 8.00.
Next, `CC[C@]1(C(N)C2CC2)CC[C@@H](Oc2cc3cc[nH]c(=O)c3cc2Cl)CC1` (some centres undefined): no less than 8.00; `CCCC[C@]1(C(N)CC)CC[C@@H](Oc2cc3c(Cc4ccccc4)c[nH]c(=O)c3cc2Cl)CC1` (some centres undefined): 6.00 to 7.00; `CC[C@@H](N)[C@]1(C)CC[C@H](Oc2cc3cc[nH]c(=O)c3cc2Cl)CC1`: no less than 8.00.
With `NC(C1CC1)[C@]1(CC2CCOCC2)CC[C@H](Oc2cc3cc[nH]c(=O)c3cc2Cl)CC1` (some centres undefined), the pIC50 is no less than 8.00.
In the case of `CC[C@]1(C(C)N)CC[C@@H](Oc2cc3ccncc3cc2Br)CC1` (some centres undefined) it was 6.00 to 7.00; in that of `CC[C@]1(C(C)N)CC[C@@H](Oc2c(F)cc3cnccc3c2C)CC1` (some centres undefined), 6.00 to 7.00.
Next, `CC[C@]1(C(N)CF)CC[C@H](Oc2cc3cc[nH]c(=O)c3cc2Cl)CC1` (some centres undefined): 7.00 to 8.00; `CCC1(C(N)CCOC)CCC(Oc2cc3cc[nH]c(=O)c3cc2Cl)CC1` (centres undefined): 7.00 to 8.00.
In turn, `CC[C@@H](N)[C@]1(CC)CC[C@H](Oc2cc3cc[nH]c(=O)c3cc2Cl)CC1` had a negative-log IC50 (pIC50) of no less than 8.00.
For `CCC(N)C1(CC2CC2)CCC(Oc2cc3cc[nH]c(=O)c3cc2Cl)CC1` (centres undefined), the pIC50 is 7.00 to 8.00 and ≥ 8.00.
Next, `CC[C@]1(C(C)N)CC[C@@H](Oc2cc3cc[nH]c(=O)c3cc2C)CC1` (some centres undefined): 7.00 to 8.00; `CCC(N)[C@]1(C2CC2)CC[C@H](Oc2cc3cc[nH]c(=O)c3cc2Cl)CC1` (some centres undefined): no less than 8.00.
Next, `CC[C@]1(C(C)N)CC[C@@H](Oc2c(F)cc3c(=O)[nH]ccc3c2C)CC1` (some centres undefined): 6.00 to 7.00.
Next, `CCC[C@]1(C(C)N)CC[C@@H](Oc2cc3ccnc(N)c3cc2Cl)CC1` (some centres undefined): 6.00 to 7.00.
Consider `CCC(N)C1(COC(C)C)CCC(Oc2cc3cc[nH]c(=O)c3cc2Cl)CC1` (centres undefined), for which the pIC50 is 7.00 to 8.00 and 6.00 to 7.00.
Next, `CCC(NCC1CC1)[C@]1(CC)CC[C@H](Oc2cc3cc[nH]c(=O)c3cc2Cl)CC1` (some centres undefined): 6.00 to 7.00; `CC(C)C(N)C1(CC2CC2)CCC(Oc2cc3cc[nH]c(=O)c3cc2Cl)CC1` (centres undefined): no less than 8.00.
`CCCC(N)[C@]1(C(C)C)CC[C@H](Oc2cc3cc[nH]c(=O)c3cc2Cl)CC1` (some centres undefined) gave a pIC50 of 7.00 to 8.00.
On to `CCC(N)[C@]1(CC)CC[C@H](Oc2c(F)cc3cnccc3c2C)CC1` (some centres undefined), for which the pIC50 was 6.00 to 7.00.
Next, `CC[C@]1(C(C)N)CC[C@@H](Oc2cc3cc[nH]c(=O)c3cc2F)CC1` (some centres undefined): 7.00 to 8.00.
For the compound `CC(N)C1(CC2CC2)CCC(Oc2cc3cc[nH]c(=O)c3cc2Cl)CC1` (centres undefined), the pIC50 is 7.00 to 8.00 and ≥ 8.00.
In the case of `CCC(N)[C@]1(CC)CC[C@H](Oc2cc3ccncc3cc2C)CC1` (some centres undefined) it was 6.00 to 7.00; in that of `CCC(N)C1(C(C)C)CCC(Oc2cc3cc[nH]c(=O)c3cc2Cl)CC1` (centres undefined), ≥ 8.00 and 7.00 to 8.00.
As for `CC(C)C1(C(N)c2nccs2)CCC(Oc2cc3cc[nH]c(=O)c3cc2Cl)CC1` (centres undefined), the pIC50 is 6.00 to 7.00.
In the case of `CC(C)CC(N)[C@]1(CC2CC2)CC[C@H](Oc2cc3cc[nH]c(=O)c3cc2Cl)CC1` (some centres undefined) it was no less than 8.00; in that of `NC(C1CC1)[C@]1(C2CC2)CC[C@H](Oc2cc3cc[nH]c(=O)c3cc2Cl)CC1` (some centres undefined), no less than 8.00; in that of `CC[C@H](N)[C@]1(C)CC[C@H](Oc2cc3cc[nH]c(=O)c3cc2Cl)CC1`, no less than 8.00.
In the case of `CC(N)C1(C2CCC2)CCC(Oc2cc3cc[nH]c(=O)c3cc2Cl)CC1` (centres undefined) it was 7.00 to 8.00; in that of `CC(C)C1(C(N)c2cncs2)CCC(Oc2cc3cc[nH]c(=O)c3cc2Cl)CC1` (centres undefined), 7.00 to 8.00; in that of `CCC(N)C1(C2CCC2)CCC(Oc2cc3cc[nH]c(=O)c3cc2Cl)CC1` (centres undefined), 7.00 to 8.00 and 6.00 to 7.00.
In the case of `CC[C@]1(C(C)N)CC[C@@H](Oc2cc3c(Cc4ccccc4)c[nH]c(=O)c3cc2Cl)CC1` (some centres undefined) it was 6.00 to 7.00; in that of `CCC(N)C1(Cc2ccccc2)CCC(Oc2cc3cc[nH]c(=O)c3cc2Cl)CC1` (centres undefined), 7.00 to 8.00.
Take `CCC[C@]1(C(C)N)CC[C@@H](Oc2cc3cc[nH]c(=O)c3cc2Cl)CC1` (some centres undefined): the pIC50 was no less than 8.00.
Next, `CCC(N)C1(CC(C)C)CCC(Oc2cc3cc[nH]c(=O)c3cc2Cl)CC1` (centres undefined): 7.00 to 8.00 and 6.00 to 7.00; `CCCC(N)C1(CC2CC2)CCC(Oc2cc3cc[nH]c(=O)c3cc2Cl)CC1` (centres undefined): 7.00 to 8.00 and ≥ 8.00; `CCC(N)[C@]1(C2CCS(=O)(=O)CC2)CC[C@H](Oc2cc3cc[nH]c(=O)c3cc2Cl)CC1` (some centres undefined): no less than 8.00.
Next, `CCC(NCc1ccccc1)[C@]1(CC)CC[C@H](Oc2cc3cc[nH]c(=O)c3cc2Cl)CC1` (some centres undefined): 6.00 to 7.00; `CCC(N)C1(C2CCCC2)CCC(Oc2cc3cc[nH]c(=O)c3cc2Cl)CC1` (centres undefined): 7.00 to 8.00; `CCC(N)[C@]1(OC)CC[C@@H](Oc2cc3cc[nH]c(=O)c3cc2Cl)CC1` (some centres undefined): 7.00 to 8.00.
In the case of `CCC(N)[C@]1(C2CCOCC2)CC[C@H](Oc2cc3cc[nH]c(=O)c3cc2Cl)CC1` (some centres undefined) it was no less than 8.00; in that of `NC(C1CC1)[C@]1(CCCC(F)(F)F)CC[C@H](Oc2cc3cc[nH]c(=O)c3cc2Cl)CC1` (some centres undefined), no less than 8.00; in that of `CCC(N)[C@]1(CC2CCOCC2)CC[C@H](Oc2cc3cc[nH]c(=O)c3cc2Cl)CC1` (some centres undefined), 7.00 to 8.00.
With `CCC1(C(C)N)CCC(Oc2cc3cc[nH]c(=O)c3cc2Cl)CC1` (centres undefined), the pIC50 is 7.00 to 8.00 and ≥ 8.00.
In the case of `CC(N)[C@]1(C2CC2)CC[C@H](Oc2cc3cc[nH]c(=O)c3cc2Cl)CC1` (some centres undefined) it was 7.00 to 8.00; in that of `CC[C@H](N)[C@]1(C2CCOCC2)CC[C@H](Oc2cc3cc[nH]c(=O)c3cc2Cl)CC1`, 7.00 to 8.00.
Take `C[C@]1(C(N)C2CC2)CC[C@@H](Oc2cc3cc[nH]c(=O)c3cc2Cl)CC1` (some centres undefined): the pIC50 is no less than 8.00.
In the case of `CCC(NCC(C)C)[C@]1(CC)CC[C@H](Oc2cc3cc[nH]c(=O)c3cc2Cl)CC1` (some centres undefined) it was 6.00 to 7.00; in that of `CCC(N)[C@]1(CC)CC[C@H](Oc2cc3cc[nH]c(=O)c3cc2F)CC1` (some centres undefined), 7.00 to 8.00; in that of `CC[C@]1(C(N)CF)CC[C@@H](Oc2cc3cc[nH]c(=O)c3cc2Cl)CC1` (some centres undefined), no less than 8.00.
In the case of `NC(c1ccccc1)[C@]1(CC2CC2)CC[C@H](Oc2cc3cc[nH]c(=O)c3cc2Cl)CC1` (some centres undefined) it was 6.00 to 7.00.
For the compound `CC[C@H](N)[C@]1(CC)CC[C@H](Oc2cc3cc[nH]c(=O)c3cc2Cl)CC1`, the pIC50 is no less than 8.00.
In the case of `CCC(N)[C@]1(OC)CC[C@H](Oc2cc3cc[nH]c(=O)c3cc2Cl)CC1` (some centres undefined) it was 7.00 to 8.00.
Next, `CCC(N)C1(C(F)(F)F)CCC(Oc2cc3cc[nH]c(=O)c3cc2Cl)CC1` (centres undefined): 6.00 to 7.00 and ≥ 8.00; `CC[C@@H](N)[C@]1(C2CCOCC2)CC[C@H](Oc2cc3cc[nH]c(=O)c3cc2Cl)CC1`: no less than 8.00.
Next, `C[C@]1(C(N)c2ccccc2)CC[C@@H](Oc2cc3cc[nH]c(=O)c3cc2Cl)CC1` (some centres undefined): 7.00 to 8.00.
As for `CCC(N)[C@]1(CC)CC[C@H](Oc2cc3cc[nH]c(=O)c3cc2Cl)CC1` (some centres undefined), the pIC50 is no less than 8.00.
Next, `CCC(N)[C@]1(C2CCCCC2)CC[C@H](Oc2cc3cc[nH]c(=O)c3cc2Cl)CC1` (some centres undefined): 7.00 to 8.00; `CCC(N)[C@]1(CC)CC[C@H](Oc2c(C)cc3cnccc3c2C)CC1` (some centres undefined): 6.00 to 7.00; `CCC(N)[C@]1(CC)CC[C@H](Oc2c(C)cc3c(=O)[nH]ccc3c2C)CC1` (some centres undefined): 6.00 to 7.00.
Next, `NC(C1CC1)C1(CC2CC2)CCC(Oc2cc3cc[nH]c(=O)c3cc2Cl)CC1` (centres undefined): 7.00 to 8.00 and ≥ 8.00.
In the case of `CC[C@]1(C(C)N)CC[C@@H](Oc2ccc3cnccc3c2Cl)CC1` (some centres undefined) it was 6.00 to 7.00; in that of `CCOC[C@]1(C(N)CC)CC[C@@H](Oc2cc3cc[nH]c(=O)c3cc2Cl)CC1` (some centres undefined), no less than 8.00; in that of `CCCC(N)[C@]1(C)CC[C@H](Oc2cc3cc[nH]c(=O)c3cc2Cl)CC1` (some centres undefined), no less than 8.00.
Compound `CCOC1(C(N)CC)CCC(Oc2cc3cc[nH]c(=O)c3cc2Cl)CC1` (centres undefined) showed a negative-log IC50 (pIC50) of 7.00 to 8.00.
`CCCC[C@]1(C(N)CC)CC[C@@H](Oc2cc3cc[nH]c(=O)c3cc2Cl)CC1` (some centres undefined) gave a pIC50 of no less than 8.00.
Next, `NC(c1ccccc1)C1(C2CCCC2)CCC(Oc2cc3cc[nH]c(=O)c3cc2Cl)CC1` (centres undefined): 7.00 to 8.00.
`CC(C)C(N)C1(C(C)C)CCC(Oc2cc3cc[nH]c(=O)c3cc2Cl)CC1` (centres undefined): the pIC50 was 6.00 to 7.00.
Regarding `CCC(N)[C@]1(C2CCOCC2)CC[C@@H](Oc2cc3cc[nH]c(=O)c3cc2Cl)CC1` (some centres undefined), the pIC50 is 6.00 to 7.00.
As for `NC(C(F)(F)F)C1(CC2CC2)CCC(Oc2cc3cc[nH]c(=O)c3cc2Cl)CC1` (centres undefined), the pIC50 is 6.00 to 7.00.
Next, `CCC(N)[C@]1(CC)CC[C@H](Oc2c(F)cc3c(=O)[nH]ccc3c2C)CC1` (some centres undefined): 6.00 to 7.00; `CCCCNC(CC)[C@]1(CC)CC[C@H](Oc2cc3cc[nH]c(=O)c3cc2Cl)CC1` (some centres undefined): 6.00 to 7.00; `CCC(N)C1(C)CCC(Oc2cc3cc[nH]c(=O)c3cc2Cl)CC1` (centres undefined): 7.00 to 8.00.
For the compound `CCCC1(C(N)C2CC2)CCC(Oc2cc3cc[nH]c(=O)c3cc2Cl)CC1` (centres undefined), the pIC50 is ≥ 8.00 and 7.00 to 8.00.
Next, `CCC(N)[C@]1(C)CC[C@H](Oc2cc3cc[nH]c(=O)c3cc2Cl)CC1` (some centres undefined): no less than 8.00; `CCC(N)[C@]1(CCCC(F)(F)F)CC[C@H](Oc2cc3cc[nH]c(=O)c3cc2Cl)CC1` (some centres undefined): no less than 8.00.
